{
  "source": "paper PMC9790248",
  "about": "“Effects of CYP3A Inhibition, CYP3A Induction, and Gastric Acid Reduction on the Pharmacokinetics of Ripretinib, a Switch Control KIT Tyrosine Kinase Inhibitor” (Clinical Pharmacology in Drug Development, 2022)",
  "key": {"[1]": {"test": "Safety assessment (TEAEs), pantoprazole study", "type": "in vivo, human", "method": "Participants were confined to the study center on days 1 through 16. On day 1, participants received an oral dose of ripretinib 50 mg under fasting conditions (Figure 1C). On days 8 through 13, participants received pantoprazole 40 mg once daily. On day 14, participants received pantoprazole 40 mg once daily and ripretinib 50 mg simultaneously under fasting conditions.\nRelationship to study drug was assessed by the investigator.\nSafety data were summarized as n (%)."}, "CYP3A4": {"molecular_target": "CYP3A4 (Homo sapiens, UniProt P08684)", "sequence (P08684 whole entry, canonical isoform)": "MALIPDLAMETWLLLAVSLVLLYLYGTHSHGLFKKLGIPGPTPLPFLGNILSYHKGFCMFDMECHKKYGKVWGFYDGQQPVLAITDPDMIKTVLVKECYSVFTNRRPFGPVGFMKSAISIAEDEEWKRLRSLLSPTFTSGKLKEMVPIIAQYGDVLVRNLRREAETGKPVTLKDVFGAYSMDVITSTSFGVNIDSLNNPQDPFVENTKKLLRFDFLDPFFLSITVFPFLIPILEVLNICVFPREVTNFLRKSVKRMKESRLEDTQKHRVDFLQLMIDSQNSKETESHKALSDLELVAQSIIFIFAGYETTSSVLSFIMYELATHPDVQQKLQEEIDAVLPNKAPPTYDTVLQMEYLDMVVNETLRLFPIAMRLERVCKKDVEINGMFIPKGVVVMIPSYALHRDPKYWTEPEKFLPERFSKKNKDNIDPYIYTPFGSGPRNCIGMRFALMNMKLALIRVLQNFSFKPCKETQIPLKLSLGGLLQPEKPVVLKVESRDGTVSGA", "test": "Incubation with recombinant human CYPs, substrate disappearance", "type": "in vitro ADME", "conditions": "ripretinib 0.1 or 1 μM, data on file", "method": "(§1) In vitro studies with recombinant human cytochrome P450 isoforms (CYPs) and human liver microsomes (with chemical inhibitors) indicate that CYP3A4/5 plays a major role in the metabolism of ripretinib (data on file). When incubated with a panel of recombinant human CYPs, ripretinib (0.1 or 1 μM) disappeared in the presence of CYP3A4 (87.8%–100%), CYP2D6 (97.7%–100%), CYP2C8 (71.2% and 18.9%, respectively), and CYP2C19 (15.7% and 6.7%, respectively)."}, "CYP2C8": {"molecular_target": "T1, CYP2C8 (Homo sapiens, UniProt P10632)", "T1 sequence (P10632 1-490)": "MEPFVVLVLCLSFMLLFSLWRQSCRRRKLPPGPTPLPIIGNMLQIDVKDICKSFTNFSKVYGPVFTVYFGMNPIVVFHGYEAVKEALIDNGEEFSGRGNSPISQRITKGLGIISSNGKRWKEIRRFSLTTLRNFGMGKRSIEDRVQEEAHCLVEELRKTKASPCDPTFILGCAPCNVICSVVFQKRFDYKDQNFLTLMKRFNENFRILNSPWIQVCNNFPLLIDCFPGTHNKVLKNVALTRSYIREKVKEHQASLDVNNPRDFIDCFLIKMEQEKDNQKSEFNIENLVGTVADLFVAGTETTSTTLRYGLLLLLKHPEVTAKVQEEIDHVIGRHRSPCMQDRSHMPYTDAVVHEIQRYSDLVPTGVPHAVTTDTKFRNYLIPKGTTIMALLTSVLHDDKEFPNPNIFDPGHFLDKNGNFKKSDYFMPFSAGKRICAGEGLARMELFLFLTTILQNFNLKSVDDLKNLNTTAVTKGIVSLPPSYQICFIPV", "test": "Incubation with recombinant human CYPs, substrate disappearance", "type": "in vitro ADME", "conditions": "data on file", "method": "as §1"}, "CYP2B6": {"molecular_target": "T2, CYP2B6 (Homo sapiens, UniProt P20813)", "T2 sequence (P20813 1-491)": "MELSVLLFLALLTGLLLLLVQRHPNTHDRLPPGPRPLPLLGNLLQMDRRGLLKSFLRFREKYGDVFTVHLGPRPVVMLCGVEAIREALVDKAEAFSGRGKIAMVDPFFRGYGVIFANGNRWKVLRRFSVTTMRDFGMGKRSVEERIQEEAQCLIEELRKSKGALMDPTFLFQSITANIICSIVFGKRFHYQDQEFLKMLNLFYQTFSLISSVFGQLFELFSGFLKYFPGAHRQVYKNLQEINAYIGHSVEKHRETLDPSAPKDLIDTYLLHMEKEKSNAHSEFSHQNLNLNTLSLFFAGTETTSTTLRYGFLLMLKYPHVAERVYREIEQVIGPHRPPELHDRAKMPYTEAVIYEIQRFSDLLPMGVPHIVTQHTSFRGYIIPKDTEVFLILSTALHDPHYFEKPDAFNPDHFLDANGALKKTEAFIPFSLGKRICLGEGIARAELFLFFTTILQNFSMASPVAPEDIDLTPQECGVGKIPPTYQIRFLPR", "test": "Incubation with recombinant human CYPs, substrate disappearance", "type": "in vitro ADME", "conditions": "ripretinib 0.1 or 1 μM, data on file", "method": "as §1"}, "CYP2C19": {"molecular_target": "CYP2C19 (Homo sapiens, UniProt P33261)", "sequence (P33261 whole entry)": "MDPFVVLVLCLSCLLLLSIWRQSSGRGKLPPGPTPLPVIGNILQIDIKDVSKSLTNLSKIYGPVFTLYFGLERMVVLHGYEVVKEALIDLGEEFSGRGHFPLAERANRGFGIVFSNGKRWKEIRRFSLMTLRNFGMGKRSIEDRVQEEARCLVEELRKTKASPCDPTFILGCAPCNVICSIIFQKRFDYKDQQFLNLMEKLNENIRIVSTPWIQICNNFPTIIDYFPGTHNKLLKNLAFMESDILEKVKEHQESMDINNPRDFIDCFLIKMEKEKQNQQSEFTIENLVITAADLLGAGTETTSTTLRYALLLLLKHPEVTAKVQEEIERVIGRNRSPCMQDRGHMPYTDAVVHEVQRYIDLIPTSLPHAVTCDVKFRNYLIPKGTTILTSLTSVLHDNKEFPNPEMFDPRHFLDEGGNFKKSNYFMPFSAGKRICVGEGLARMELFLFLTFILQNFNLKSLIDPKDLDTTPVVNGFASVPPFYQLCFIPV", "test": "Incubation with recombinant human CYPs, substrate disappearance", "type": "in vitro ADME", "conditions": "data on file", "method": "as §1"}, "CYP1A2": {"molecular_target": "T3, CYP1A2 (Homo sapiens, UniProt P05177)", "T3 sequence (P05177 1-516)": "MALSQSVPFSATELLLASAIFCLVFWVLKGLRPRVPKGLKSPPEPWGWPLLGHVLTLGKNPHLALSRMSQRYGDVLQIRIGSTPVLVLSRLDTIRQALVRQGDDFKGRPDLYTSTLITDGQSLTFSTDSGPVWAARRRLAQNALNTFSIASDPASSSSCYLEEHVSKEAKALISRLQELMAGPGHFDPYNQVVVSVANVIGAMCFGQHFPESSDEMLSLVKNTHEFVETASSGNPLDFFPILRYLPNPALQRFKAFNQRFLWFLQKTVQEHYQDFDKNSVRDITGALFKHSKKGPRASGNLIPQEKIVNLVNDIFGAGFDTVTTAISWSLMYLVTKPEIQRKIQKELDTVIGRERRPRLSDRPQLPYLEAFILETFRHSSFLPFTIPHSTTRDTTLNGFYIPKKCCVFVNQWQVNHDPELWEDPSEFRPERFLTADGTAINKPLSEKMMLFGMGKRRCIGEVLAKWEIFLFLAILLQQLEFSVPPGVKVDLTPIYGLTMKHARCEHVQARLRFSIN", "test": "Incubation with recombinant human CYPs, substrate disappearance", "type": "in vitro ADME", "conditions": "ripretinib 0.1 or 1 μM, data on file", "method": "as §1"}, "CYP2C9": {"molecular_target": "CYP2C9 (Homo sapiens, UniProt P11712)", "sequence (P11712 whole entry)": "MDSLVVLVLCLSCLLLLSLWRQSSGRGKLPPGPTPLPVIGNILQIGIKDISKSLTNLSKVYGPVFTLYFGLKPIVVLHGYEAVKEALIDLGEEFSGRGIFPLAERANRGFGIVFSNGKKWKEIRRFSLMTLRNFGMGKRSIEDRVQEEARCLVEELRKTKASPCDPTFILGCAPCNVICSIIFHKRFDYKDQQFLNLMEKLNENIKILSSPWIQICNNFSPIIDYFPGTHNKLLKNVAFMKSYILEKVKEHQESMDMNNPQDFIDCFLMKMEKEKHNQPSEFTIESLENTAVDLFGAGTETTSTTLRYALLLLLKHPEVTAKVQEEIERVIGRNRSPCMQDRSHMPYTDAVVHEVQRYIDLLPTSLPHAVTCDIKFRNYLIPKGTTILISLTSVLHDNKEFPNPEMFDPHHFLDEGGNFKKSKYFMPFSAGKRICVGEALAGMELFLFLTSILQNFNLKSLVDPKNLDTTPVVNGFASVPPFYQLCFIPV", "test": "Incubation with recombinant human CYPs, substrate disappearance", "type": "in vitro ADME", "conditions": "ripretinib 0.1 or 1 μM, data on file", "method": "as §1"}, "CYP2D6": {"molecular_target": "T4, CYP2D6 (Homo sapiens, UniProt P10635)", "T4 construct": "with human liver microsomes (0.5 mg protein/mL) for 30 minutes; from tissue; host or cells: human liver microsomes", "T4 sequence (P10635 whole entry)": "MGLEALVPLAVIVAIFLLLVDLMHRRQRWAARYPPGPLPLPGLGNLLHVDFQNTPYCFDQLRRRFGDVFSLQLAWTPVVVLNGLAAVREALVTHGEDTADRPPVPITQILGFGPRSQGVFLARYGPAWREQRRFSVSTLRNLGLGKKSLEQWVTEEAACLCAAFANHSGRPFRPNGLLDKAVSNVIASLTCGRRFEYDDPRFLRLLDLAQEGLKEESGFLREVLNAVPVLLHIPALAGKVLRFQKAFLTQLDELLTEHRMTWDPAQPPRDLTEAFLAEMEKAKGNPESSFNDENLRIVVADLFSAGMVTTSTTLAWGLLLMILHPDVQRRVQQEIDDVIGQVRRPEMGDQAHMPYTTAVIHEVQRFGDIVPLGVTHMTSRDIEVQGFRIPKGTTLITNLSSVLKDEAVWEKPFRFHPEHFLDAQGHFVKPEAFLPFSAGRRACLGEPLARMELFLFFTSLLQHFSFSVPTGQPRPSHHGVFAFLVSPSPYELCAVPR", "test": "Incubation with recombinant human CYPs, substrate disappearance", "type": "in vitro ADME", "conditions": "ripretinib 0.1 or 1 μM, data on file", "method": "as §1"}, "[2]": {"test": "Safety assessment (TEAEs), itraconazole study", "protocol": "On days 8 through 10, participants received itraconazole 200 mg once daily with a meal or snack. On day 11, participants received ripretinib 50 mg 1 hour after itraconazole 200 mg under fasting conditions. On days 12 through 17, participants received itraconazole 200 mg once daily with a meal or snack. […] Safety was assessed throughout and a follow‐up safety phone call was conducted at day 24 or 7 days after the last dose of study drug if participants withdrew early.\nTEAEs were defined as adverse events (AEs) that occurred/worsened during or after administration of any of the study drugs. Relationship to study drug was assessed by the investigator. The safety population included all enrolled participants who received ≥1 dose of ripretinib.\nParticipant demographics, clinical characteristics, and PK parameters were summarized using descriptive statistics. Safety data were summarized as n (%). […] PK parameters were calculated using Phoenix® WinNonlin® v7.0 or higher (Certara USA Inc.)."}, "[3]": {"conditions": "itraconazole study: ripretinib 50 mg alone and with itraconazole 200 mg QD, safety population N = 20"}},
  "data": [
    {"smiles": "CCn1c(=O)c(-c2cc(NC(=O)Nc3ccccc3)c(F)cc2Br)cc2cnc(NC)cc21", "note": "[Ripretinib]", "values": [
      {"measurement": "Number of TEAEs attributed to study drug", "setting": "[1]; human, in vivo, 28 days", "result": 42},
      {"measurement": "Participants with TEAEs attributed to study drug per the investigator", "setting": "[1]; human, in vivo, 28 days", "result": "19 (76%) n (%)"},
      {"measurement": "Total number of TEAEs", "setting": "[1]; human, in vivo, 28 days", "result": 63},
      {"measurement": "Deaths and serious AEs", "setting": "[1]; pantoprazole study, N = 25", "result": "No deaths occurred and no participants experienced SAEs"},
      {"measurement": "Substrate disappearance", "setting": "CYP3A4", "result": "87.8%–100%"},
      {"measurement": "Substrate disappearance", "setting": "CYP2C8; ripretinib 0.1 μM", "result": 71.2, "unit": "%"},
      {"measurement": "Substrate disappearance", "setting": "CYP2C8; ripretinib 1 μM", "result": 18.9, "unit": "%"},
      {"measurement": "Substrate disappearance", "setting": "CYP2B6", "result": "less than 7%"},
      {"measurement": "Substrate disappearance", "setting": "CYP2C19; ripretinib 0.1 μM", "result": 15.7, "unit": "%"},
      {"measurement": "Substrate disappearance", "setting": "CYP2C19; ripretinib 1 μM", "result": 6.7, "unit": "%"},
      {"measurement": "Substrate disappearance", "setting": "CYP1A2", "result": "less than 7%"},
      {"measurement": "Substrate disappearance", "setting": "CYP2C9", "result": "less than 7%"},
      {"measurement": "Substrate disappearance", "setting": "CYP2D6", "result": "97.7%–100%"},
      {"measurement": "Deaths and serious AEs", "setting": "[2]; itraconazole study, N = 20", "result": "No deaths occurred and no participants experienced serious AEs"},
      {"measurement": "Number of TEAEs attributed to study drug", "setting": "[2]; itraconazole study, N = 20", "result": 36},
      {"measurement": "Participants with TEAEs attributed to study drug per the investigator", "setting": "[2]; itraconazole study, N = 20", "result": "13 (65%) n (%)"},
      {"measurement": "Total number of TEAEs", "setting": "[2]; itraconazole study, N = 20", "result": 44},
      {"measurement": "Participants reporting any TEAE", "setting": "[2]; [3]", "result": "14 (70.0) n (%)"},
      {"measurement": "TEAE: ALT increase", "setting": "[2]; [3]", "result": "1 (5.0) n (%)"},
      {"measurement": "TEAE: AST increase", "setting": "[2]; [3]", "result": "0 n (%)"},
      {"measurement": "TEAE: Abdominal discomfort", "setting": "[2]; [3]", "result": "0 n (%)"},
      {"measurement": "TEAE: Abdominal pain", "setting": "[2]; [3]", "result": "3 (15.0) n (%)"},
      {"measurement": "TEAE: Abdominal pain lower", "setting": "[2]; [3]", "result": "1 (5.0) n (%)"},
      {"measurement": "TEAE: Amylase increase", "setting": "[2]; [3]", "result": "4 (20.0) n (%)"},
      {"measurement": "TEAE: Constipation", "setting": "[2]; [3]", "result": "1 (5.0) n (%)"},
      {"measurement": "TEAE: Diarrhea", "setting": "[2]; [3]", "result": "4 (20.0) n (%)"},
      {"measurement": "TEAE: Fatigue", "setting": "[2]; [3]", "result": "1 (5.0) n (%)"},
      {"measurement": "TEAE: Headache", "setting": "[2]; [3]", "result": "2 (10.0) n (%)"},
      {"measurement": "TEAE: Lipase increase", "setting": "[2]; [3]", "result": "5 (25.0) n (%)"},
      {"measurement": "TEAE: Nausea", "setting": "[2]; [3]", "result": "2 (10.0) n (%)"},
      {"measurement": "TEAE: Vomiting", "setting": "[2]; [3]", "result": "1 (5.0) n (%)"},
      {"measurement": "Participants reporting any TEAE", "setting": "[2]; itraconazole study: ripretinib 50 mg alone and with itraconazole 200 mg QD, safety population N = 20, listed as ripretinib", "result": "14 (70%) n (%)"}
    ]}
  ]
}
